Where a name gives a salt, the structure may show the parent alone.
Test system: Balb/c male mice kept immersed in water (stress from sleep deprivation)
Assay: Water immersion sleep deprivation test, weight-loaded swimming; critical swimming time = time to nose first submerged for at least 10 seconds (Examples 1 and 3)
Conditions: for anti-fatigue action: fatigue animal models
Excerpt: The anti-fatigue action in the present invention, or its effectiveness as “anti-fatigue agents” can be verified by such a method as measuring the swimming time in a water immersion sleep deprivation test. Mice that have been kept in an environment such as water immersion where they are unable to have a good sleep or take a rest position so they cannot have a physical or mental rest are forced to swim under a weight load and the critical swimming time (e.g., the time it takes for the mouse to have its nose first submerged in the water for a period of ten seconds or longer or the time it takes for the mouse to have its nose finally submerged in the water (and incapable of rising up to its surface again)) is measured to confirm the degree of their fatigue. Since this is an animal model for physical or mental fatigue, an extension of the swimming time as achieved by administering it with the test substance means the verification of resistance to fatigue, as exemplified by prevention or relief of physical and/or mental fatigue or any accompanying muscle or other pains, a sufficient increase in body strength to extend the time to total exhaustion, and maintenance of physical vigor in the tired model.
The anti-fatigue effect was evaluated by the following partial modification of the method of Tanaka et al. (Neuroscience, Let. 352, 159-162, 2003): Balb/c male mice (8-week old) were purchased from Japan SLC, Inc. and conditioned in a test environment for a week, and the animals that had grown normally were subjected to the test. They were divided into five groups, as identified in Table 1, such that each group consisted of 10 animals and had the same average body weight. […] Four of those five groups were water immersion groups under stress from sleep deprivation, which were kept in breeding cages, not on paper chips but in tap water (23° C.) supplied to a depth of 7 mm, thereby depriving the mice of sleep. During a two-day immersion in water to deprive sleep, the mice were administered orally with the associated test samples for two days on a one-dose-a-day basis. Of the two test samples, the sesamin-class compounds were dissolved in olive oil and the thiamin in distilled water. The order of administration was the thiamin followed by the sesamin-class compounds; as controls, distilled water and olive oil were administered orally.
After two days of keeping under immersion in water or normal keeping, each mouse was fitted with a weight at the tail which corresponded to 8% of its body weight, and was allowed to swim in a water tank of 18 cm^φ that was filled with water to a depth of 30 cm; the time it took for each mouse to have its nose first submerged in the water for a period of at least 10 seconds was measured as the critical swimming time. […] The degree by which the administration of the test samples (sesamin-class compounds and/or vitamin B1 class compound) could shorten the critical swimming time was measured to evaluate the anti-fatigue action of the test samples.
The anti-fatigue action from independent administration of vitamin B1 class compound was evaluated as in Example 1, except that the mice were divided into nine groups as identified in Tables 3 and 4.

Cc1ncc(C[n+]2csc(CCO)c2C)c(N)n1 [vitamin B1 class compound, thiamine hydrochloride] was tested, and the critical swimming time (Example 1, FIG. 1, 50 mg/kg vitamin B1 class compound oral, once a day for two days (comparative group 2) vs comparative group 1) was “no recognizable change in critical swimming time”, the critical swimming time (Example 3, FIG. 3, 5 mg/kg vitamin B1 class compound alone (reference group 1) vs comparative group 7) was “comparable” and the critical swimming time (Example 3, FIG. 3, 10 mg/kg vitamin B1 class compound alone (reference group 2) vs comparative group 7) was “comparable”. For the same compound, the critical swimming time (Example 3, FIG. 3, 25 mg/kg vitamin B1 class compound alone (reference group 3) vs comparative group 7) was “comparable”, the critical swimming time (Example 3, FIG. 4, 50 mg/kg vitamin B1 class compound alone (reference group 4) vs comparative group 8) was “comparable” and the critical swimming time (Example 3, FIG. 4, 100 mg/kg vitamin B1 class compound alone (reference group 5) vs comparative group 8) was “longer”. For the same compound, the anti-fatigue action (only vitamin B1 class compound orally, 5 to 10 mg/kg (FIG. 3)) was “no anti-fatigue action was observed”, the anti-fatigue action (vitamin B1 class compound independently, 5 mg/kg (FIGS. 3 and 4)) was “no anti-fatigue action was observed” and the anti-fatigue action (vitamin B1 class compound independently, 10 mg/kg (FIGS. 3 and 4)) was “no anti-fatigue action was observed”. The anti-fatigue action (vitamin B1 class compound independently, 25 mg/kg (FIGS. 3 and 4)) was “no anti-fatigue action was observed”, the anti-fatigue action (vitamin B1 class compound independently, 50 mg/kg (FIGS. 3 and 4)) was “no anti-fatigue action was observed” and the anti-fatigue action (vitamin B1 class compound independently, 100 mg/kg (FIGS. 3 and 4)) was “enhanced”.
